Results on 20 compounds are retold here after patent US10111432B2, “Picolinamide N-oxide compounds with fungicidal activity” (Dow AgroSciences LLC, priority 2016, dated 2018).

For one assay, the system named is Zymoseptoria tritici. Put plainly: Fungicidal activity: leaf blotch of wheat (SEPTTR), disease control on wheat seedlings. The following applies: for pest or weed control at 100 ppm: high volume application; for pest or weed control at 121.5 g/ha: low volume application, 121.5 g/H. Type of assay: in vivo. The method, then:
Technical grades of materials were dissolved in acetone, which were then mixed with nine volumes of water (H2O) containing 110 ppm Triton X-100. The fungicide solutions were applied onto wheat seedlings using an automated booth sprayer to run-off. All sprayed plants were allowed to air dry prior to further handling. All fungicides were evaluated using the aforementioned method for their activity vs. all target diseases, unless stated otherwise. Wheat leaf blotch and brown rust activity were also evaluated using track spray applications, in which case the fungicides were formulated as EC formulations, containing 0.1% Trycol 5941 in the spray solutions. Wheat plants (variety Yuma) were grown from seed in a greenhouse in 50% mineral soil/50% soil-less Metro mix until the first leaf was fully emerged, with 7-10 seedlings per pot. These plants were inoculated with an aqueous spore suspension of Zymoseptoria tritici either prior to or after fungicide treatments. After inoculation the plants were kept in 100% relative humidity (one day in a dark dew chamber followed by two to three days in a lighted dew chamber at 20° C.) to permit spores to germinate and infect the leaf. The plants were then transferred to a greenhouse set at 20° C. for disease to develop. When disease symptoms were fully expressed on the 1st leaves of untreated plants, infection levels were assessed on a scale of 0 to 100 percent disease severity. Percent disease control was calculated using the ratio of disease severity on treated plants relative to untreated plants.

The test system of a further assay is Puccinia triticina. Put plainly: Fungicidal activity: wheat brown rust (PUCCRT), disease control on wheat seedlings. Type of assay: in vivo. The following applies: for pest or weed control at 100 ppm: high volume application; for pest or weed control at 121.5 g/ha: low volume application, 121.5 g/H. On the procedure:
Technical grades of materials were dissolved in acetone, which were then mixed with nine volumes of water (H2O) containing 110 ppm Triton X-100. The fungicide solutions were applied onto wheat seedlings using an automated booth sprayer to run-off. All sprayed plants were allowed to air dry prior to further handling. All fungicides were evaluated using the aforementioned method for their activity vs. all target diseases, unless stated otherwise. Wheat leaf blotch and brown rust activity were also evaluated using track spray applications, in which case the fungicides were formulated as EC formulations, containing 0.1% Trycol 5941 in the spray solutions. Wheat plants (variety Yuma) were grown from seed in a greenhouse in 50% mineral soil/50% soil-less Metro mix until the first leaf was fully emerged, with 7-10 seedlings per pot. These plants were inoculated with an aqueous spore suspension of Puccinia triticina either prior to or after fungicide treatments. After inoculation the plants were kept in a dark dew room at 22° C. with 100% relative humidity overnight to permit spores to germinate and infect the leaf. The plants were then transferred to a greenhouse set at 24° C. for disease to develop. Fungicide formulation, application and disease assessment followed the procedures as described in the Example A. Results of the evaluations are shown below in Table 4.

[1] abbreviates: 24 h, 1 day protectant, read-out: SEPTTR disease control, 1DP, HV activity at 100 ppm.
Where [2] appears, read: 24 h, 1 day protectant, read-out: SEPTTR disease control, 1DP, LV activity at 121.5 g/H.
[3] abbreviates: 72 h, 3 day curative, read-out: SEPTTR disease control, 3DC, HV activity at 100 ppm.
The mark [4] stands for this setting: 72 h, 3 day curative, read-out: SEPTTR disease control, 3DC, LV activity at 121.5 g/H.
Where [5] appears, read: 24 h, 1 day protectant, read-out: PUCCRT disease control, 1DP, HV activity at 100 ppm.
[6] abbreviates: 24 h, 1 day protectant, read-out: PUCCRT disease control, 1DP, LV activity at 121.5 g/H.
[7] abbreviates: 72 h, 3 day curative, read-out: PUCCRT disease control, 3DC, HV activity at 100 ppm.
Where [8] appears, read: 72 h, 3 day curative, read-out: PUCCRT disease control, 3DC, LV activity at 121.5 g/H.

Each structure is given as a SMILES string. Read-outs that look alike come from different tables or passages of the source.

With `COc1cc[n+]([O-])c(C(=O)N[C@@H](C)C(=O)O[C@@H](C)C(c2ccc(C)cc2C)c2ccc(C)cc2C)c1O` [Compound 1, 2-(((S)-1-(((S)-1,1-bis(2,4-dimethylphenyl)propan-2-yl)oxy)-1-oxopropan-2-yl)carbamoyl)-3-hydroxy-4-methoxypyridine 1-oxide], the pest or weed control at 100 ppm is more than 80% with Zymoseptoria tritici (setting [1]), more than 80% in the assay with Zymoseptoria tritici (setting [3]), more than 80% with Puccinia triticina (setting [5]) and not above 80% with Puccinia triticina (setting [7]). For the same compound, the pest or weed control at 121.5 g/ha in the assay on Zymoseptoria tritici (setting [2]) was more than 80%; in the assay with Zymoseptoria tritici (setting [4]), more than 80%; with Puccinia triticina (setting [6]), more than 80%; with Puccinia triticina (setting [8]), not above 80%.

In the case of `COc1cc[n+]([O-])c(C(=O)N[C@@H](C)C(=O)O[C@@H](C)[C@@H](c2ccccc2)c2ccc(F)cc2)c1O` [Compound 2], the pest or weed control at 100 ppm with Zymoseptoria tritici (setting [1]), in the assay on Zymoseptoria tritici (setting [3]), with Puccinia triticina (setting [5]) and in the assay on Puccinia triticina (setting [7]) was more than 80% in each case. Moreover, the pest or weed control at 121.5 g/ha in the assay with Zymoseptoria tritici (setting [2]), in the assay with Puccinia triticina (setting [6]) and with Puccinia triticina (setting [8]) was more than 80% in each case.

For the compound `COc1ccc(C(c2ccc(OC)cc2F)[C@H](C)OC(=O)[C@H](C)NC(=O)c2c(O)c(OC)cc[n+]2[O-])c(F)c1` [Compound 3], the pest or weed control at 100 ppm is more than 80% in the assay with Zymoseptoria tritici (setting [1]), not above 80% in the assay on Zymoseptoria tritici (setting [3]), more than 80% in the assay on Puccinia triticina (setting [5]) and more than 80% in the assay with Puccinia triticina (setting [7]). For the same compound, the pest or weed control at 121.5 g/ha with Zymoseptoria tritici (setting [2]) was more than 80%; in the assay with Zymoseptoria tritici (setting [4]) it was not above 80%; in the assay with Puccinia triticina (setting [6]) it was more than 80%; in the assay on Puccinia triticina (setting [8]), not above 80%.

As for `COc1ccc(F)c(C(c2cc(OC)ccc2F)[C@H](C)OC(=O)[C@H](C)NC(=O)c2c(O)c(OC)cc[n+]2[O-])c1` [Compound 4], the pest or weed control at 100 ppm was not above 80% in the assay with Zymoseptoria tritici (setting [1]), more than 80% in the assay on Puccinia triticina (setting [5]) and not above 80% in the assay on Puccinia triticina (setting [7]). For the same compound, in the assay on Zymoseptoria tritici (setting [4]), the pest or weed control at 121.5 g/ha was more than 80%.

`COc1cc[n+]([O-])c(C(=O)N[C@@H](C)C(=O)O[C@@H](C)C(c2ccc(Cl)c(Cl)c2)c2ccc(Cl)c(Cl)c2)c1O` [Compound 5]: the figures for the pest or weed control at 100 ppm in the assay on Zymoseptoria tritici (setting [1]) and in the assay on Zymoseptoria tritici (setting [3]) were more than 80% and not above 80%, respectively. Further, the values for the pest or weed control at 121.5 g/ha in the assay with Zymoseptoria tritici (setting [2]), in the assay on Zymoseptoria tritici (setting [4]) and in the assay on Puccinia triticina (setting [6]) were more than 80%, not above 80% and not above 80%, respectively.

As for `COc1cc[n+]([O-])c(C(=O)N[C@@H](C)C(=O)O[C@@H](C)C(c2ccc(Cl)c(F)c2)c2ccc(Cl)c(F)c2)c1O` [Compound 6], the pest or weed control at 100 ppm with Zymoseptoria tritici (setting [1]), in the assay on Zymoseptoria tritici (setting [3]) and in the assay with Puccinia triticina (setting [5]) was more than 80% in each case. Moreover, the pest or weed control at 121.5 g/ha in the assay with Zymoseptoria tritici (setting [2]) was more than 80%; in the assay with Zymoseptoria tritici (setting [4]), more than 80%; with Puccinia triticina (setting [6]) it was not above 80%.

For `COc1cc[n+]([O-])c(C(=O)N[C@@H](C)C(=O)O[C@@H](C)C(c2ccc(Cl)c(C)c2)c2ccc(Cl)c(C)c2)c1O` [Compound 7], the pest or weed control at 121.5 g/ha with Zymoseptoria tritici (setting [2]) was more than 80%; in the assay on Zymoseptoria tritici (setting [4]) it was more than 80%; in the assay with Puccinia triticina (setting [6]), more than 80%; in the assay with Puccinia triticina (setting [8]), not above 80%.

`CC[C@H](OC(=O)[C@H](C)NC(=O)c1c(O)c(OC)cc[n+]1[O-])[C@H](Oc1ccccc1)C(C)C` [Compound 8]: the values for the pest or weed control at 121.5 g/ha in the assay on Zymoseptoria tritici (setting [4]), in the assay with Puccinia triticina (setting [6]) and with Puccinia triticina (setting [8]) were not above 80%, not above 80% and more than 80%, respectively.

For the compound `COc1cc[n+]([O-])c(C(=O)N[C@@H](C)C(=O)O[C@@H](C)C(O)(c2ccc(Cl)c(F)c2)c2ccc(Cl)c(F)c2)c1O` [Compound 9], the pest or weed control at 100 ppm with Zymoseptoria tritici (setting [1]) is more than 80%. The pest or weed control at 121.5 g/ha with Zymoseptoria tritici (setting [2]) was more than 80%.

`COc1cc[n+]([O-])c(C(=O)N[C@@H](C)C(=O)O[C@H](C(C)C)[C@H](C)Oc2ccccc2)c1O` [Compound 10]: the pest or weed control at 100 ppm with Zymoseptoria tritici (setting [1]) is not above 80%; with Puccinia triticina (setting [5]), more than 80%; in the assay on Puccinia triticina (setting [7]), more than 80%. In addition, the pest or weed control at 121.5 g/ha with Zymoseptoria tritici (setting [2]), with Puccinia triticina (setting [6]) and with Puccinia triticina (setting [8]) was more than 80% in each case.

Take `COc1cc[n+]([O-])c(C(=O)N[C@@H](C)C(=O)O[C@@H](C)C(O)(c2ccc(Cl)c(Cl)c2)c2ccc(Cl)c(Cl)c2)c1O` [Compound 11]: the pest or weed control at 100 ppm in the assay with Zymoseptoria tritici (setting [1]) was more than 80%. Further, the pest or weed control at 121.5 g/ha is more than 80% with Zymoseptoria tritici (setting [2]) and not above 80% with Zymoseptoria tritici (setting [4]).

In the case of `COc1cc[n+]([O-])c(C(=O)N[C@@H](C)C(=O)O[C@@H](C)C(c2ccc(F)c(F)c2OC)c2ccc(F)c(F)c2OC)c1O` [Compound 12], the pest or weed control at 100 ppm with Zymoseptoria tritici (setting [1]) is more than 80%; in the assay with Zymoseptoria tritici (setting [3]), more than 80%; with Puccinia triticina (setting [5]) it was more than 80%; in the assay with Puccinia triticina (setting [7]), not above 80%. Besides, the pest or weed control at 121.5 g/ha in the assay on Zymoseptoria tritici (setting [2]) was more than 80%; in the assay on Zymoseptoria tritici (setting [4]), more than 80%; with Puccinia triticina (setting [6]), more than 80%; in the assay with Puccinia triticina (setting [8]), not above 80%.

As for `COc1cc[n+]([O-])c(C(=O)N[C@@H](C)C(=O)O[C@@H](C)C(c2ccc(F)cc2)c2ccc(F)cc2)c1O` [Compound 13], the pest or weed control at 100 ppm in the assay on Zymoseptoria tritici (setting [1]), in the assay on Zymoseptoria tritici (setting [3]), with Puccinia triticina (setting [5]) and in the assay with Puccinia triticina (setting [7]) was more than 80% each time. In addition, the pest or weed control at 121.5 g/ha with Zymoseptoria tritici (setting [2]) is more than 80%; with Zymoseptoria tritici (setting [4]), more than 80%; with Puccinia triticina (setting [6]), more than 80%; in the assay on Puccinia triticina (setting [8]), not above 80%.

Take `COc1cc[n+]([O-])c(C(=O)N[C@@H](C)C(=O)O[C@@H](C)C(c2ccc(C)c(C)c2)c2ccc(C)c(C)c2)c1O` [Compound 15]: the pest or weed control at 121.5 g/ha was more than 80% in the assay on Zymoseptoria tritici (setting [2]), more than 80% in the assay with Zymoseptoria tritici (setting [4]), not above 80% in the assay with Puccinia triticina (setting [6]) and not above 80% in the assay with Puccinia triticina (setting [8]).

As for `COc1cc[n+]([O-])c(C(=O)N[C@@H](C)C(=O)O[C@@H](C)C(c2ccc(F)c(C)c2)c2ccc(F)c(C)c2)c1O` [Compound 17], the pest or weed control at 121.5 g/ha with Zymoseptoria tritici (setting [2]) is more than 80%; in the assay on Zymoseptoria tritici (setting [4]), more than 80%; with Puccinia triticina (setting [6]) it was not above 80%; with Puccinia triticina (setting [8]), not above 80%.

Take `COc1cc(C(c2ccc(C)c(OC)c2)[C@H](C)OC(=O)[C@H](C)NC(=O)c2c(O)c(OC)cc[n+]2[O-])ccc1C` [Compound 18]: the pest or weed control at 121.5 g/ha is more than 80% in the assay on Zymoseptoria tritici (setting [2]), more than 80% in the assay on Zymoseptoria tritici (setting [4]), not above 80% in the assay on Puccinia triticina (setting [6]) and not above 80% in the assay with Puccinia triticina (setting [8]).

For the compound `COc1cc[n+]([O-])c(C(=O)N[C@@H](C)C(=O)O[C@@H](C)C(C)(c2ccccc2)c2ccccc2)c1O` [Compound 27], the pest or weed control at 100 ppm in the assay on Zymoseptoria tritici (setting [1]) and in the assay with Zymoseptoria tritici (setting [3]) was more than 80% throughout. Besides, the pest or weed control at 121.5 g/ha in the assay on Zymoseptoria tritici (setting [2]) and in the assay on Zymoseptoria tritici (setting [4]) was not above 80% each time.

Take `COc1cc[n+]([O-])c(C(=O)N[C@@H](C)C(=O)O[C@@H](C)C(c2cccc(F)c2)c2cccc(F)c2)c1O` [Compound 35]: the pest or weed control at 121.5 g/ha in the assay with Zymoseptoria tritici (setting [2]) and in the assay with Zymoseptoria tritici (setting [4]) was not above 80% in each case.

Regarding `COc1cc[n+]([O-])c(C(=O)N[C@@H](C)C(=O)O[C@@H](C)C(c2cccc(OC)c2OC)c2cccc(OC)c2OC)c1O` [Compound 40], the pest or weed control at 121.5 g/ha in the assay with Zymoseptoria tritici (setting [4]) was not above 80%.

On to `COc1ccc(F)cc1C(c1cc(F)ccc1OC)[C@H](C)OC(=O)[C@H](C)NC(=O)c1c(O)c(OC)cc[n+]1[O-]` [Compound 41], for which the pest or weed control at 121.5 g/ha in the assay with Zymoseptoria tritici (setting [2]) and in the assay on Zymoseptoria tritici (setting [4]) was not above 80% throughout.
